The source made the active and inactive calls. No cut-off for these calls is given here.
Assays:
[1] = test system: Serine/threonine-protein kinase B-raf (Homo sapiens), P15056 [V600E]; test: Inhibition of BRAF V600E mutant (unknown origin) assessed as inhibition of MEK phosphorylation at 2 uM by ELISA relative to control
[2] = biological target: Serine/threonine-protein kinase B-raf (Homo sapiens, UniProt P15056, V600E); test: Inhibition of BRAF V600E mutant (unknown origin) assessed as inhibition of MEK phosphorylation by ELISA
Serine/threonine-protein kinase B-raf, sequence (P15056 2-766 V600E limits assumed): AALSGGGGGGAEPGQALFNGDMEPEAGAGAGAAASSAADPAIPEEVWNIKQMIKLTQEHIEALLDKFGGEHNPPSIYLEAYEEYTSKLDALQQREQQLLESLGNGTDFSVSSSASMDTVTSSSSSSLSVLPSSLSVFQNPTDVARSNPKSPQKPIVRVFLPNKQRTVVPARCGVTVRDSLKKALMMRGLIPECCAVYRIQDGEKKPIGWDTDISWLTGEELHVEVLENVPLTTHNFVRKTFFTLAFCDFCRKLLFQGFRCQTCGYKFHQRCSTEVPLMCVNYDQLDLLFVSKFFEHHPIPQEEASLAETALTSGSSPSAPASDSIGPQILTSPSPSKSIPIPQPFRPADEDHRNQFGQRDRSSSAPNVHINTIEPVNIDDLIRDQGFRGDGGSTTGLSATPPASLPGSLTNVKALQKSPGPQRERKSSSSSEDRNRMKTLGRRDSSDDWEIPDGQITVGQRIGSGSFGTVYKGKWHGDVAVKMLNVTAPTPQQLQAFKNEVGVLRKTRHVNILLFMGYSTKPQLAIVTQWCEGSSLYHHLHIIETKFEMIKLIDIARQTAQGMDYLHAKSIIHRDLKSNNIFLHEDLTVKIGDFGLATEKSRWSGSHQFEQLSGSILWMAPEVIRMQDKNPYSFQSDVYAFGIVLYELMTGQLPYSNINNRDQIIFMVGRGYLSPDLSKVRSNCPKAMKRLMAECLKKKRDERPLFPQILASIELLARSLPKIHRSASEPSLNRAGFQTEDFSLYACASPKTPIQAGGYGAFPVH

[3] = test system: Serine/threonine-protein kinase B-raf (Homo sapiens), P15056 [V600E]; test: Inhibition of BRAF V600E mutant (unknown origin) assessed as inhibition of MEK phosphorylation at 1 uM by ELISA relative to control

Serine/threonine-protein kinase B-raf (Homo sapiens), P15056 [V600E], sequence (P15056 whole entry V600E): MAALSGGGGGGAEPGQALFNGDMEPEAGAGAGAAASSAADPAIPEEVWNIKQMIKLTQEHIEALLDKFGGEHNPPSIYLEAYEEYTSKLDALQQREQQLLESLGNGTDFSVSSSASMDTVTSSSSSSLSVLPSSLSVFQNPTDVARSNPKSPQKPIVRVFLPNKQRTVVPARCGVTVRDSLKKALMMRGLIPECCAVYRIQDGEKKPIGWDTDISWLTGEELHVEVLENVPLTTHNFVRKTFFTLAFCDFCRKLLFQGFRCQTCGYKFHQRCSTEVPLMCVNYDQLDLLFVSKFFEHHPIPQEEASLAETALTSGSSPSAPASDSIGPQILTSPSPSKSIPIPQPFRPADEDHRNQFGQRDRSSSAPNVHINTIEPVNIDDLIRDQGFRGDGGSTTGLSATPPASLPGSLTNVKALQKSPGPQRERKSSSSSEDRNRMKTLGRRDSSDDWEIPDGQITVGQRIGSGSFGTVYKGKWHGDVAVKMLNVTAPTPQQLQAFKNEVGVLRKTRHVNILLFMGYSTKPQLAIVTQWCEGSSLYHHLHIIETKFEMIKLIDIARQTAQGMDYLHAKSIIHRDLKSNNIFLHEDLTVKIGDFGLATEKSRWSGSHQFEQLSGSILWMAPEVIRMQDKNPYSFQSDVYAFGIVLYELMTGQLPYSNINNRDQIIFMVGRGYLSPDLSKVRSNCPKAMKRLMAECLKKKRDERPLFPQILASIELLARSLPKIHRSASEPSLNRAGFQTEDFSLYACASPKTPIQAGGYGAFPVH

Row | Structure (SMILES) | inhibition [1] | IC50 [2] [nM] | inhibition [3]
1 | CCOC(=O)c1sc(NC(=O)c2cccc(C#N)c2)c(C#N)c1C | 40% |  | 
2 | COC(=O)c1sc(NC(=O)c2ccccc2OC)c(C#N)c1C | inactive |  | 
3 | CCOC(=O)c1sc(NC(=O)c2cccc(Cl)c2)c(C#N)c1C | 57% |  | 
4 | CCOC(=O)c1sc(NC(=O)c2ccc(OC)c(OC)c2)c(C#N)c1C | 32% |  | 
5 | CCOC(=O)c1sc(NC(=O)c2ccccc2C)c(C#N)c1C | 52% | 2010 | 
6 | CCOC(=O)c1sc(NC(=O)c2ccc(OCC)cc2)c(C#N)c1C | 69% | 1160 | 
7 | CCOC(=O)c1sc(NC(=O)c2ccc(Br)cc2)c(C#N)c1C | inactive |  | 
8 | CCOC(=O)c1sc(NC(=O)c2ccc(C)cc2)c(C#N)c1C | 48% |  | 
9 | CCOC(=O)c1sc(NC(=O)c2ccc(NC(C)=O)cc2)c(C#N)c1C |  |  | inactive
10 | CCOC(=O)c1sc(NC(=O)c2ccc(C(C)(C)C)cc2)c(C#N)c1C | 46% |  | 
11 | CCOC(=O)c1sc(NC(=O)c2ccc(Cl)cc2)c(C(N)=O)c1C | 26% |  | 
12 | CCOC(=O)c1sc(NC(=O)c2cccc(C)c2)c(C#N)c1C | 50% |  | 
13 | CCOC(=O)c1sc(NC(=O)c2ccccc2NS(C)(=O)=O)c(C#N)c1C |  |  | inactive
14 | COC(=O)c1sc(NC(=O)c2cc(OC)cc(OC)c2)c(C#N)c1C | inactive |  | 
15 | CCCOC(=O)c1c(NC(=O)c2ccccc2F)sc(C(=O)OCC)c1C | inactive |  | 
16 | CCOC(=O)c1sc(NC(=O)c2cccnc2)c(C#N)c1C |  |  | 20%
17 | CCOC(=O)c1sc(NC(=O)c2ccccc2OC)c(C#N)c1C | 42% |  | 
18 | CCOC(=O)c1sc(NC(=O)c2ccccc2)c(C(=O)OCC)c1C | inactive |  | 
19 | CCOc1ccc(C(=O)Nc2sc(C(=O)OC(C)C)c(C)c2C#N)cc1 | inactive |  | 
20 | CCOC(=O)c1sc(NC(=O)c2ccc(C(=O)OC)cc2)c(C#N)c1C | 54% |  | 
21 | CCOC(=O)c1sc(NC(=O)c2ccccc2Cl)c(C#N)c1C | inactive |  | 
22 | CCOC(=O)c1sc(NC(=O)c2ccc(NS(C)(=O)=O)cc2)c(C#N)c1C |  |  | inactive
23 | COC(=O)c1sc(NC(=O)c2cccc(C)c2)c(C#N)c1C | inactive |  | 
24 | Cc1c(C(=O)OC(C)C)sc(NC(=O)c2ccc(F)cc2)c1C#N | inactive |  | 

Row | Structure (SMILES) | inhibition [1] | IC50 [2] [nM] | inhibition [3]
25 | CCCS(=O)(=O)Nc1cc(F)c(C(=O)Nc2sc(C(=O)OCC)c(C)c2C#N)c(F)c1 |  |  | 34%
26 | CCOC(=O)c1sc(NC(=O)c2cccc(NS(C)(=O)=O)c2)c(C#N)c1C |  |  | inactive
27 | CCOC(=O)c1sc(NC(=O)c2ccc(Cl)c(C(F)(F)F)c2)c(C#N)c1C | 60% |  | 
28 | CCOC(=O)c1sc(NC(=O)c2ccco2)c(C#N)c1C | inactive |  | 
29 | CCOC(=O)c1sc(NC(=O)c2cccc(OC)c2)c(C#N)c1C | 13% |  | 
30 | CCOC(=O)c1sc(NC(=O)c2ccc(Cl)c([N+](=O)[O-])c2)c(C#N)c1C | 51% | 2160 | 
31 | CCOC(=O)c1sc(NC(=O)c2ccc(C)c(OC)c2)c(C#N)c1C | inactive |  | 
32 | CCOC(=O)c1sc(NC(=O)c2ccncc2)c(C#N)c1C |  |  | 22%
33 | CCOC(=O)c1sc(NC(=O)c2ccccc2F)c(C#N)c1C | 51% |  | 
34 | CCOC(=O)c1sc(NC(=O)c2cccc(NC(C)=O)c2)c(C#N)c1C |  |  | 17%
35 | CCOC(=O)c1sc(NC(=O)c2ccc(F)cc2)c(C(=O)Nc2ccccc2)c1C | 87% | 630 | 66%
36 | CCOC(=O)c1sc(NC(=O)c2ccccn2)c(C#N)c1C |  |  | 39%
37 | CCOC(=O)c1sc(NC(=O)c2cccc([N+](=O)[O-])c2)c(C#N)c1C | 36% |  | 
38 | CCOC(=O)c1sc(NC(=O)c2ccccc2I)c(C(=O)OC)c1C | inactive |  | 
39 | CCOC(=O)c1sc(NC(=O)c2ccc(Cl)c(F)c2)c(C#N)c1C | 59% |  | 
40 | O=C1NC(=S)NC(=O)C1=Cc1ccc(-c2ccc(Br)cc2)o1 |  | 470 | 
41 | CCOC(=O)c1sc(NC(=O)c2ccc(Cl)nc2)c(C#N)c1C |  |  | 10%
42 | CCOC(=O)c1sc(NC(=O)c2ccc(N3CCN(C)CC3)cc2)c(C#N)c1C | inactive |  | 
43 | CCOC(=O)c1sc(NC(=O)c2ccc(OC)cc2)c(C#N)c1C | 15% |  | 
44 | CCOC(=O)c1sc(NC(=O)c2ccc(Cl)c(Cl)c2)c(C#N)c1C | 36% |  | 
45 | Cc1c(C(=O)OC(C)C)sc(NC(=O)c2ccc(Cl)c(Cl)c2)c1C#N | 42% |  | 
46 | CCOC(=O)c1sc(NC(=O)c2cc(OC)cc(OC)c2)c(C#N)c1C | 85% | 770 | 60%
47 | CCOC(=O)c1sc(NC(=O)c2ccccc2F)c(C(N)=O)c1C | inactive |  | 
48 | CCOC(=O)c1sc(NC(=O)c2ccc(Cl)cc2)c(C#N)c1C | 60% |  | 

From ChEMBL document CHEMBL2390888, “Identification and synthesis of N-(thiophen-2-yl) benzamide derivatives as BRAF(V600E) inhibitors” (Bioorg Med Chem Lett, 2013)
